Marks after values point to notes of the source that are not given here.
Assays:
Format in all cases: in vivo
Wistar rats [1] = experiment: Food intake in fasted rats after SC injection; conditions: overnight fasted rats, compared to controls given vehicle
Experimental: (§1) NMRI mice, C57BL/6 mice, and Wistar rats (AnLab, Prague, Czech Republic) were housed in a temperature of 23° C. and a daily cycle of 12 h light and dark (light from 6:00). They were given ad libitum water and a standard chow diet that contained 25, 9 and 66% of calories of protein, fat and carbohydrate respectively. Energy content of the feed was 3.4 kcal/g (St-1, Mlýn Kocanda, Czech Republic). Db/db mice and their controls (C57BL/6 background) were obtained from Taconic (Denmark), housed under the same conditions as described above, and fed by Altromin (Taconic, Denmark). ZDF-Lepr^fa/Crl, diabetic fa/fa male rats were obtained from Charles River (France), housed under same conditions as described above, and fed with a Purina 5008 diet (IPS Product Supplies Limited, UK). All experiments followed the ethical guidelines for animal experiments and the law of the Czech Republic Nr. 246/1992.
In experiments with C57BL/6 mice or Wistar rats, food intake was measured with overnight fasted animals in individual cages. Food was withdrawn 17 hours prior to injection of lipidated analog of prolactin releasing peptide (PrRP); free access to water was maintained. The administration of either saline, PrRP, or lipidated analogs was performed by SC injection at doses of 1-10 mg/kg (which corresponded to a volume of 0.2 ml/mouse and 0.1 ml/100 g weight of rat). Fifteen minutes after the lipidated analog of prolactin releasing peptide (PrRP) administration, the mice were given pre-weighed food. The food was then weighed every 30 minutes for 5-10 hours. The administration of each dose was performed at least twice, and each group of mice consisted of at least 6 mice.

C57BL/6 mice = experiment: IPGTT after acute administration in lean mice; conditions: lean C57BL/6 mice, 5 mg/kg SC, vs saline
Experimental: IPGTT was performed in overnight fasted male C57BL/6 mice.
Intraperitoneal glucose tolerance test (IPGTT) was performed in overnight fasted male C57BL/6 mice (AnLab, Praha, Czech Republic) at age of 12 weeks. […] 15 min later, 2 g/kg glucose solution was administered IP. Blood glucose was then measured at 15, 30, 60, 120 min from glucose injection using a glucometer (Glucocard, Arkray, Kyoto, Japan).
IPGTT was performed in overnight fasted male C57BL/6 mice, Blood glucose levels were measured at the beginning and after subcutaneous (SC—beneath the skin) administration of palm-PrRP31 (5 mg/kg SC) or saline (n=7) at time 30, 60, 90 and 120 min post injection. […] Regarding the error bars in the graphs *P<0.05, **P<0.01. IPGTT glucose levels were lower in mice given analog 43 instead of saline, particularly early in the experiment. Total area under the curve was also clearly lower in analog 43 mice.

diabetic db/db mice = experiment: IPGTT after 14 days administration to diabetic db/db mice; conditions: 5 mg/kg SC twice a day for 14 days, vs saline
Experimental: Then, mice were fasted overnight and IPGTT was performed. After initial blood glucose measurement, 2 g/kg glucose solution was administered IP and glucose followed every hour for 7 hours. Glucose level is shown at the end of the experiment (420 min).
Db/db male mice and their respective controls were acclimatized after arrival, housed 2-3 mice per cage, and used in the experiment at age 11-12 weeks. Mice had free access to food and water, and were subjected to a 14-day experiment. […] The body weight of the mice was followed simultaneously. Following 14 days of treatment, mice were fasted overnight and IPGTT was performed. After initial blood glucose measurement, 2 g/kg glucose solution was administered IP, and glucose levels were measured every hour for 7 hours.

Wistar rats [2] = experiment: IPGTT after acute administration in lean rats; conditions: fasted male Wistar rats, 5 mg/kg, vs saline
Experimental: IPGTT was performed in overnight fasted male Wistar rats.
IPGTT was performed in overnight fasted male Wistar rats (Antab, Praha, Czech Republic) at age of 14 weeks. […] 15 min later, 2 g/kg glucose solution was administered IP. Blood glucose was then measured at 15, 30, 60, and 120 min from glucose injection.
FIG. 4 illustrates a plot of glucose levels after acute administration of palm-PrRP31 in rats. IPGTT was performed in overnight fasted male Wistar rats.

ZDF diabetic rats = experiment: 21 days repeated administration in diabetic ZDF rats (food intake, OGTT, metabolic parameters)
Experimental: (§2) Rats were subjected to a 21-day food intake experiment. ZDF rats were IP injected with either phosphate-buffered saline pH6 (control) or compound 43 or 52 at a dose of 1 and 5 mg/kg (n=8), twice a day for 21 days. After 21 days of treatment, rats were fasted overnight and OGTT was performed. After initial blood glucose measurement, 2 g/kg glucose solution was administered by oral gavage. Blood glucose was then measured at 15, 30, 60, 90, 120 and 180 min.
as §1
The ZDF rats were treated with vehicle or analogs 43 and 52 (1 and 5 mg/kg IP) dissolved in phosphate buffered saline, pH 6, twice daily for 21 days and sacrificed on day 22. Food intake was measured daily up to day 22. Leptin, insulin, cholesterol and HbA1c levels were measured on day 21. Glucose tolerance test (OGTT) was also performed on day 21.
as §2, with “min. […] The statistical significance, denoted by the asterisk (*), was *P<0.05.” for “min.”

[3] = ZDF rats, 1 mg/kg IP twice daily
[4] = ZDF rats, 5 mg/kg IP twice daily
[5] = ZDF rats, day 21, 1 mg/kg IP twice daily
[6] = ZDF rats, day 21, 5 mg/kg IP twice daily

In the case of `CCCCCCCCCCCCCCCC(=O)N[C@@H](CO)C(=O)N[C@@H](CCCNC(=N)N)C(=O)N[C@H](C(=O)N[C@@H](Cc1c[nH]cn1)C(=O)N[C@@H](CCCNC(=N)N)C(=O)N[C@@H](Cc1c[nH]cn1)C(=O)N[C@@H](CO)C(=O)N[C@@H](CCSC)C(=O)N[C@@H](CCC(=O)O)C(=O)N[C@H](C(=O)N[C@@H](CCCNC(=N)N)C(=O)N[C@H](C(=O)N1CCC[C@H]1C(=O)N[C@@H](CC(=O)O)C(=O)N[C@H](C(=O)N[C@@H](CC(N)=O)C(=O)N1CCC[C@H]1C(=O)N[C@@H](C)C(=O)N[C@@H](Cc1c[nH]c2ccccc12)C(=O)N[C@@H](Cc1ccc(O)cc1)C(=O)N[C@@H](C)C(=O)N[C@@H](CO)C(=O)N[C@@H](CCCNC(=N)N)C(=O)NCC(=O)N[C@H](C(=O)N[C@@H](CCCNC(=N)N)C(=O)N1CCC[C@H]1C(=O)N[C@H](C(=O)NCC(=O)N[C@@H](CCCNC(=N)N)C(=O)N[C@@H](Cc1ccccc1)C(N)=O)C(C)C)[C@@H](C)CC)[C@@H](C)CC)[C@@H](C)O)[C@@H](C)CC)[C@@H](C)O` [Analog 43], the “Food intake in rats” value (Wistar rats [1]) is reported as “significantly reduced”, the “IPGTT glucose levels” value (C57BL/6 mice) is reported as “lower” and the “IPGTT total area under the curve” value (C57BL/6 mice) is reported as “clearly lower”. The “IPGTT glucose level at end of experiment (420 min)” value (diabetic db/db mice) was “significantly lower”, the “Large spike in blood glucose in IPGTT” value (Wistar rats [2]) was “did not” and the “Food intake in free fed ZDF diabetic rats” value (ZDF diabetic rats; 5 mg/kg IP twice daily, vs vehicle) was “significantly lowered”. For the same molecule, the “Cumulative food intake Day 1” value (ZDF diabetic rats; [3]) was 40.8 ± 2.1 g, the “Cumulative food intake Day 1-7” value (ZDF diabetic rats; [3]) was 299.9 ± 8.9 g and the “Cumulative food intake Day 1-14” value (ZDF diabetic rats; [3]) was 572.5 ± 15.5 g. For the same molecule, the “Cumulative food intake Day 1-21” value (ZDF diabetic rats; [3]) was 817.7 ± 22.1 g, the “Cumulative food intake Day 1” value (ZDF diabetic rats; [4]) was 34.2 g and the “Cumulative food intake Day 1-7” value (ZDF diabetic rats; [4]) was 273.3 ± 20.4** g. For the same molecule, the “Cumulative food intake Day 1-14” value (ZDF diabetic rats; [4]) was 528.9 ± 36.0** g, the “Cumulative food intake Day 1-21” value (ZDF diabetic rats; [4]) was 768.2 g and the “OGTT blood glucose levels” value (ZDF diabetic rats; ZDF rats, 5 mg/kg twice daily for 21 days) was “significant lowering”. The “Blood cholesterol levels” value (ZDF diabetic rats; ZDF rats, 1 and 5 mg/kg twice daily, vs controls) was “significantly lowered”, the Cholesterol (ZDF diabetic rats; [5]) was 3.10 ± 0.12* mmol/l and the Insulin (ZDF diabetic rats; [5]) was 267.69 ± 40.69 pmol/L. The Leptin (ZDF diabetic rats; [5]) was 13297 ± 921 pg/mL, the Cholesterol (ZDF diabetic rats; [6]) was 2.91 ± 0.12** mmol/l and the Insulin (ZDF diabetic rats; [6]) was 271.84 ± 34.00 pmol/L. It also gave a Leptin (ZDF diabetic rats; [6]) of 16560 ± 4843 pg/mL.
